PubChem BioAssay (NCI)
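Interpolation was linear, between the two tested concentrations surrounding the appropriate level; five concentrations were tested over 48 hours in 96-well plates. Here, GI50 denotes the concentration required for 50% inhibition of growth. TGI denotes the concentration required for complete inhibition of growth.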

Legend:
Experiment in all cases: NCI tumour cell line growth inhibition, 48 h
M14 melanoma = system: M14 melanoma
K-562 leukemia = system: K-562 leukemia
OVCAR-8 ovarian = system: OVCAR-8 ovarian
IGROV1 ovarian = system: IGROV1 ovarian
MDA-MB-231 breast = system: MDA-MB-231 breast
KM12 colon = system: KM12 colon
SK-OV-3 ovarian = system: SK-OV-3 ovarian
SF-539 CNS = system: SF-539 CNS
SF-295 CNS = system: SF-295 CNS
CCRF-CEM leukemia = system: CCRF-CEM leukemia
A549 NSCLC = system: A549 NSCLC
UACC-62 melanoma = system: UACC-62 melanoma
MDA-MB-435 = system: MDA-MB-435
SNB-19 CNS = system: SNB-19 CNS
CAKI-1 renal = system: CAKI-1 renal
HS 578T breast = system: HS 578T breast
UACC-257 melanoma = system: UACC-257 melanoma
PC-3 prostate = system: PC-3 prostate
NCI-H522 lung = system: NCI-H522 lung
SN12C renal = system: SN12C renal
HCT-15 colon = system: HCT-15 colon
SNB-75 CNS = system: SNB-75 CNS
OVCAR-3 ovarian = system: OVCAR-3 ovarian
T-47D breast = system: T-47D breast
HCC-2998 colon = system: HCC-2998 colon
MALME-3M melanoma = system: MALME-3M melanoma
NCI/ADR-RES ovarian = system: NCI/ADR-RES ovarian
NCI-H226 lung = system: NCI-H226 lung
HL-60(TB) leukemia = system: HL-60(TB) leukemia
NCI-H460 lung = system: NCI-H460 lung
SK-MEL-5 melanoma = system: SK-MEL-5 melanoma
RXF 393 renal = system: RXF 393 renal
ACHN renal = system: ACHN renal
MOLT-4 leukemia = system: MOLT-4 leukemia
HOP-62 NSCLC = system: HOP-62 NSCLC
MCF7 breast = system: MCF7 breast
OVCAR-5 ovarian = system: OVCAR-5 ovarian
HT29 colon = system: HT29 colon
HCT-116 colon = system: HCT-116 colon
NCI-H23 lung = system: NCI-H23 lung
SR leukemia = system: SR leukemia
SK-MEL-28 melanoma = system: SK-MEL-28 melanoma
DU-145 prostate = system: DU-145 prostate
UO-31 renal = system: UO-31 renal
LOX IMVI melanoma = system: LOX IMVI melanoma
BT-549 breast = system: BT-549 breast
RPMI-8226 leukemia = system: RPMI-8226 leukemia
TK-10 renal = system: TK-10 renal
COLO 205 colon = system: COLO 205 colon
SF-268 CNS = system: SF-268 CNS
SW-620 colon = system: SW-620 colon
HOP-92 NSCLC = system: HOP-92 NSCLC
SK-MEL-2 melanoma = system: SK-MEL-2 melanoma
A498 renal = system: A498 renal
OVCAR-4 ovarian = system: OVCAR-4 ovarian
786-0 renal = system: 786-0 renal
U251 CNS = system: U251 CNS

O=c1c2sc3ccccc3c2nnn1-c1ccc(F)c(Cl)c1
GI50 (M14 melanoma): 30 µM | TGI (M14 melanoma): > 100 µM | GI50 (K-562 leukemia): 14.8 µM | TGI (K-562 leukemia): 39.4 µM | GI50 (OVCAR-8 ovarian): 5.16 µM | TGI (OVCAR-8 ovarian): > 100 µM | GI50 (IGROV1 ovarian): 3.66 µM | TGI (IGROV1 ovarian): 38 µM | GI50 (MDA-MB-231 breast): 3.99 µM | TGI (MDA-MB-231 breast): 26.1 µM | GI50 (KM12 colon): 17.4 µM | TGI (KM12 colon): > 100 µM | GI50 (SK-OV-3 ovarian): 3.17 µM | TGI (SK-OV-3 ovarian): 9.92 µM | GI50 (SF-539 CNS): 11.9 µM | TGI (SF-539 CNS): 27.7 µM | GI50 (SF-295 CNS): 2.56 µM | TGI (SF-295 CNS): 8.59 µM | GI50 (CCRF-CEM leukemia): 4.03 µM | TGI (CCRF-CEM leukemia): 16.9 µM | GI50 (A549 NSCLC): 3.75 µM | TGI (A549 NSCLC): > 100 µM | GI50 (UACC-62 melanoma): 11.7 µM | TGI (UACC-62 melanoma): 38.8 µM | GI50 (MDA-MB-435): > 100 µM | TGI (MDA-MB-435): > 100 µM | GI50 (SNB-19 CNS): 4.16 µM | TGI (SNB-19 CNS): 34.4 µM | GI50 (CAKI-1 renal): 3.65 µM | TGI (CAKI-1 renal): > 100 µM | GI50 (HS 578T breast): 2.68 µM | TGI (HS 578T breast): 10.4 µM | GI50 (UACC-257 melanoma): 29.4 µM | TGI (UACC-257 melanoma): > 100 µM | GI50 (PC-3 prostate): 7.76 µM | TGI (PC-3 prostate): > 100 µM | GI50 (NCI-H522 lung): 20.2 µM | TGI (NCI-H522 lung): > 100 µM | GI50 (SN12C renal): 15.1 µM | TGI (SN12C renal): > 100 µM | GI50 (HCT-15 colon): 20.3 µM | TGI (HCT-15 colon): > 100 µM | GI50 (SNB-75 CNS): 2.01 µM | TGI (SNB-75 CNS): 8.89 µM | GI50 (OVCAR-3 ovarian): 21.2 µM | TGI (OVCAR-3 ovarian): > 100 µM | GI50 (T-47D breast): 8.12 µM | TGI (T-47D breast): > 100 µM | GI50 (HCC-2998 colon): 24.8 µM | TGI (HCC-2998 colon): > 100 µM | GI50 (MALME-3M melanoma): 8.17 µM | TGI (MALME-3M melanoma): 54.6 µM | GI50 (NCI/ADR-RES ovarian): 17.1 µM | TGI (NCI/ADR-RES ovarian): > 100 µM | GI50 (NCI-H226 lung): 8.87 µM | TGI (NCI-H226 lung): > 100 µM | GI50 (HL-60(TB) leukemia): 56.6 µM | TGI (HL-60(TB) leukemia): > 100 µM | GI50 (NCI-H460 lung): 4.2 µM | TGI (NCI-H460 lung): > 100 µM | GI50 (SK-MEL-5 melanoma): 39.3 µM | TGI (SK-MEL-5 melanoma): > 100 µM | GI50 (RXF 393 renal): 5.21 µM | TGI (RXF 393 renal): 22.4 µM | GI50 (ACHN renal): 3.88 µM | TGI (ACHN renal): 27.2 µM | GI50 (MOLT-4 leukemia): 14.9 µM | TGI (MOLT-4 leukemia): 32.5 µM | GI50 (HOP-62 NSCLC): 2.17 µM | TGI (HOP-62 NSCLC): 5.66 µM | GI50 (MCF7 breast): 20.4 µM | TGI (MCF7 breast): > 100 µM | GI50 (OVCAR-5 ovarian): 20.8 µM | TGI (OVCAR-5 ovarian): > 100 µM | GI50 (HT29 colon): > 100 µM | TGI (HT29 colon): > 100 µM | GI50 (HCT-116 colon): 3.6 µM | TGI (HCT-116 colon): 20.9 µM | GI50 (NCI-H23 lung): 15.7 µM | TGI (NCI-H23 lung): 62.8 µM | GI50 (SR leukemia): 7.99 µM | TGI (SR leukemia): 22.7 µM | GI50 (SK-MEL-28 melanoma): > 100 µM | TGI (SK-MEL-28 melanoma): > 100 µM | GI50 (DU-145 prostate): 15.6 µM | TGI (DU-145 prostate): > 100 µM | GI50 (UO-31 renal): 2.13 µM | TGI (UO-31 renal): > 100 µM | GI50 (LOX IMVI melanoma): 3.9 µM | TGI (LOX IMVI melanoma): > 100 µM | GI50 (BT-549 breast): 31.7 µM | TGI (BT-549 breast): 95 µM | GI50 (RPMI-8226 leukemia): 13.4 µM | TGI (RPMI-8226 leukemia): 41.4 µM | GI50 (TK-10 renal): 4.63 µM | TGI (TK-10 renal): 13.8 µM | GI50 (COLO 205 colon): 3.93 µM | TGI (COLO 205 colon): > 100 µM | GI50 (SF-268 CNS): 15 µM | TGI (SF-268 CNS): 55 µM | GI50 (SW-620 colon): > 100 µM | TGI (SW-620 colon): > 100 µM | GI50 (HOP-92 NSCLC): 1.25 µM | TGI (HOP-92 NSCLC): 4.89 µM | GI50 (SK-MEL-2 melanoma): 14.8 µM | TGI (SK-MEL-2 melanoma): 35 µM | GI50 (A498 renal): 5.82 µM | TGI (A498 renal): 24.2 µM | GI50 (OVCAR-4 ovarian): 3.39 µM | TGI (OVCAR-4 ovarian): > 100 µM | GI50 (786-0 renal): 3.62 µM | TGI (786-0 renal): 11.5 µM | GI50 (U251 CNS): 4.76 µM | TGI (U251 CNS): 24.9 µM
